Results: patent US12187681B2 (Shanghai East Hospital, priority 2019, dated 2025)

What was measured:
[1] = molecular target: T1, CaV1.2 (L-type voltage-dependent calcium channel; CACNA1C, CACNB2, CACNA2D1) (Homo sapiens, UniProt Q13936); test: CaV1.2 channel whole-cell patch clamp (Ion Channel Activity Measurement); format: cell-based; details: human, room temperature; for inhibition at 5 min, 1 μM: pH 7.4, 1 μM test article; for inhibition at 5 min, 10 μM: pH 7.4, 10 μM test article, read-out: CaV 1.2 10 μM (ion-channel inhibition)
T1 construct: expressed in transfected cells; host or cells: CHO
T1 sequence (Q13936 1-2138 isoform Q13936-12): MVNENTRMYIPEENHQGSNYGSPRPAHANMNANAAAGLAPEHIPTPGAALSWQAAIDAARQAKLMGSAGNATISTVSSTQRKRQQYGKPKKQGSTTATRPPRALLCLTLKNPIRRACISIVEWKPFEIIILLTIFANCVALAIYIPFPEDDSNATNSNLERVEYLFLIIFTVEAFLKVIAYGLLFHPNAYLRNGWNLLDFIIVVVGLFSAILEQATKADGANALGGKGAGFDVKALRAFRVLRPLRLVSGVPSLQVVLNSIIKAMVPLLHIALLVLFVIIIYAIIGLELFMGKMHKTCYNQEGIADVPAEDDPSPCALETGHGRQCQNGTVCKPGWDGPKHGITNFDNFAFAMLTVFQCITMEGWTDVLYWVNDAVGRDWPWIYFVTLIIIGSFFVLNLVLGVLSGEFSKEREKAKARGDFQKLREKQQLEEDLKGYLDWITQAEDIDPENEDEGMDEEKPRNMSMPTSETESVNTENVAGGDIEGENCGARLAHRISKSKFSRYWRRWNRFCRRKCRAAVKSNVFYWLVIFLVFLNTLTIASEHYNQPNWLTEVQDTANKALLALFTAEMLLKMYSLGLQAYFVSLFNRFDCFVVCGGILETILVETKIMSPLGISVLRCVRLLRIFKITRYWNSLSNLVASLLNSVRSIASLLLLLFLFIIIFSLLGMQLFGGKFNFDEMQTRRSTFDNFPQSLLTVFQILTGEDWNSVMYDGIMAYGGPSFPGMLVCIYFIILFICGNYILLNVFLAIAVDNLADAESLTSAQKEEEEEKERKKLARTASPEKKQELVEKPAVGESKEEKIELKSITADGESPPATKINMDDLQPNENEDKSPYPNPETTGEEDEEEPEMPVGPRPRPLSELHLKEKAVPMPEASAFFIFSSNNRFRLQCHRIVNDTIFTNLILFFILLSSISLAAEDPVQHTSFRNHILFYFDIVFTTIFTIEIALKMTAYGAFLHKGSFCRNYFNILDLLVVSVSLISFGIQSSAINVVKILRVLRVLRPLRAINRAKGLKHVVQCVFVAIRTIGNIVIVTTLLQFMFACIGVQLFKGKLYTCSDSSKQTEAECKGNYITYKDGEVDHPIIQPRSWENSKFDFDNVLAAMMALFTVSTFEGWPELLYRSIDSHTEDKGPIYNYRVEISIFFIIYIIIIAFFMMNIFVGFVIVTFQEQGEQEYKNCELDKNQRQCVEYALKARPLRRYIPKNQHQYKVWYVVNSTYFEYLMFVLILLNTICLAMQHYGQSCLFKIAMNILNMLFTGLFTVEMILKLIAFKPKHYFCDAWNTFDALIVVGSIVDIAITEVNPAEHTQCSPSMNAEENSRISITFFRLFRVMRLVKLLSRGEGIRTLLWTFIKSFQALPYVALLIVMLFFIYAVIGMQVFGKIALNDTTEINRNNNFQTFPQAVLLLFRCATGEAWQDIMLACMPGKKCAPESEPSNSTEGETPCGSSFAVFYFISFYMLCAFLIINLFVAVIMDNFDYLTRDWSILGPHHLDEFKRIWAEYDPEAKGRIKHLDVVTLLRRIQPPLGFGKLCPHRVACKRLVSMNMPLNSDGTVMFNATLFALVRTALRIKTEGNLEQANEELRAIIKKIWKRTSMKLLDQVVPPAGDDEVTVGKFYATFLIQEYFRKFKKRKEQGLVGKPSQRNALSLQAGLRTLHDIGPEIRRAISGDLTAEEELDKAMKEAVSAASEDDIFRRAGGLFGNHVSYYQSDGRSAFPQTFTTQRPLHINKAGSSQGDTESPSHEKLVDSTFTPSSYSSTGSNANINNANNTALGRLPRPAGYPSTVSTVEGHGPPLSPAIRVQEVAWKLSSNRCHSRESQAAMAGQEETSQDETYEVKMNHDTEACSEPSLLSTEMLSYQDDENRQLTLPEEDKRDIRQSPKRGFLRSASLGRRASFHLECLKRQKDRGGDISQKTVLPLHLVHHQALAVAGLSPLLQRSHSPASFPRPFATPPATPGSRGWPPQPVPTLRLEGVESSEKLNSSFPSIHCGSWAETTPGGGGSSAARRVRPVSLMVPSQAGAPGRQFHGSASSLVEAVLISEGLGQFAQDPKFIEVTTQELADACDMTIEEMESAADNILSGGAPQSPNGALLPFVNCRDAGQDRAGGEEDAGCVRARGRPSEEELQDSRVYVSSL
T1 sequence (Q08289 1-605 isoform Q08289-2 partner): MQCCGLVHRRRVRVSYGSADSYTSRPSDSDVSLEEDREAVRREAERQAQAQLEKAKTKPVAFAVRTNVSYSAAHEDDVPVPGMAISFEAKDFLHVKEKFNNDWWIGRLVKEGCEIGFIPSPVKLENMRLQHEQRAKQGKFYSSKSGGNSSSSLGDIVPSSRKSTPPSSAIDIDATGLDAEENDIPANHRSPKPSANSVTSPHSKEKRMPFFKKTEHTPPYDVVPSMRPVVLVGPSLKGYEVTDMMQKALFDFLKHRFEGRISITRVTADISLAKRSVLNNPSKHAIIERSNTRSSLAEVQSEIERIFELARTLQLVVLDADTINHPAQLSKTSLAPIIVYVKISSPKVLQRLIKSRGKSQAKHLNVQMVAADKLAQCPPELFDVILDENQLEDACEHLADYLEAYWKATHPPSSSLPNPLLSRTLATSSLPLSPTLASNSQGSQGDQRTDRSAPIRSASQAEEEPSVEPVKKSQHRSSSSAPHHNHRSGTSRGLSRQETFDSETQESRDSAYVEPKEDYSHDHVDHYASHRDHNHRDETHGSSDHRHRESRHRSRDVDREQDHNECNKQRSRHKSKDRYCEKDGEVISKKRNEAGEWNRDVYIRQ
T1 sequence (P54289 25-1091 isoform P54289-2 partner limits assumed): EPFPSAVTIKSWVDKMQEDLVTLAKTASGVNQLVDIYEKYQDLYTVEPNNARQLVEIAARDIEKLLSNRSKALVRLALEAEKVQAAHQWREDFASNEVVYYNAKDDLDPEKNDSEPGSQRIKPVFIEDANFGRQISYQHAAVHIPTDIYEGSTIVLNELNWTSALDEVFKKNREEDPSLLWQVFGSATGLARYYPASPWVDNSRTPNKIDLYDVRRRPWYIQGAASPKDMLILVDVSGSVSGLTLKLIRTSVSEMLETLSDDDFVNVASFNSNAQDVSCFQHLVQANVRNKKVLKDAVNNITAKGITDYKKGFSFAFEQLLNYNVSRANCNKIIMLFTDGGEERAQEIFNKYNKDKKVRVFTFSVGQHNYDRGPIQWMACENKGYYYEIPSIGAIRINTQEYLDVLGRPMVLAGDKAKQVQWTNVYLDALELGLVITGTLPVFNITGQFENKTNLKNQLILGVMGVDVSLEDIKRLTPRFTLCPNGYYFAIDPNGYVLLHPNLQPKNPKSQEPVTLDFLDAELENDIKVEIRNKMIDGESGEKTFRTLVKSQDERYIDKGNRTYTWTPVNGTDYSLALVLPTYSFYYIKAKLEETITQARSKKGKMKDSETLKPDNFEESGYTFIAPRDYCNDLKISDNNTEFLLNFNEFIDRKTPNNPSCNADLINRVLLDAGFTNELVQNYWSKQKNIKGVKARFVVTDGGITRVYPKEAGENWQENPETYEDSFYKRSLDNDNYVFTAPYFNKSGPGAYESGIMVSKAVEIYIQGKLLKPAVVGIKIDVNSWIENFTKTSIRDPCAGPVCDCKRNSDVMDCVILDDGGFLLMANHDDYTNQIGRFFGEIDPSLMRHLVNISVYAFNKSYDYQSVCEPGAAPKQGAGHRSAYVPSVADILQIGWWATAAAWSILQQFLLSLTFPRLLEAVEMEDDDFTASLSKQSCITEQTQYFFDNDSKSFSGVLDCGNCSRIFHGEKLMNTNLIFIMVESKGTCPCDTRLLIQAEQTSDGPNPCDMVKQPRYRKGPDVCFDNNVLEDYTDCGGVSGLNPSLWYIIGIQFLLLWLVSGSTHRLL
T1 sequence (P54289 957-1103 partner limits assumed): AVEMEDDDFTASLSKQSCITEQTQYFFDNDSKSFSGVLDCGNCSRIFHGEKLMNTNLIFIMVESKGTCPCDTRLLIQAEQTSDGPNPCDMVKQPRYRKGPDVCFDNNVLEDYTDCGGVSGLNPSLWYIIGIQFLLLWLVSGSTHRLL
Experimental: • CHO cell line stably expressing human calcium channel, voltage-dependent, L type, • CACNA1C: cDNA strictly similar to GenBank accession number: NM_000719 • CACNB2: cDNA strictly similar to GenBank accession number: NM_000724 • CACNA2D1: cDNA strictly similar to GenBank accession number: NM_000722 Iks Channel Cell Line:
(§1) Cells expressing channels were cultured in medium supplemented with 20% FBS in HAM'S F12 culture dish. Cells grew in a humidified incubator at 37° C. under 5% carbon dioxide. To passage cells, remove poor medium and rinse the cells once with PBS 1X. […] Place plate on a 37° C. warming incubator 5 min. As soon as cells are detached, add 5 ml of 37° C. complete medium. Draw cell suspension into a sterile pipet and homogenize cells gently to dissociate cells aggregates. Amplify or maintain the cells by seeding 2.5*105 cells in a 6 cm dish (final volume: 5 ml). To maintain electrophysiological performances, cell density must not exceed 80%. On the day before patch clamp experiment, 3*103 cells were seeded on coverslips in the 24-well plate and incubated at 37° C. in 5% carbon dioxide.
Bath solution: 140 mM TEA-C1, 2 mM MgCl2·6H2O, 10 mM CaCl2, 10 mM HEPES, 5 mM D-glucose, pH=7.4 with TEA-OH. Pipette solution: 120 mM CsCl, 1 mM MgCl2·6H2O, 10 mM HEPES, 10 mM EGTA, 0.3 mM Na2-GTP, 4 mM Mg-ATP, pH=7.2 with CsOH.
(§2) Glass pipette (BF150-86-10, Sutter Instruments) was made by puller (P97, Sutter Instruments). The glass pipette was manipulated using Micro-manipulator (Carm-C-S, MCI Instruments) under the microscope (AE31EF-INV, Motic). After touching the cell, a slight suction was applied to achieve high seal (GΩ). Fast capacitance (in pF) compensation was made after high seal was achieved; after achieving high seal, the membrane was broken, Cell capacitance (in pF) compensation was made from whole-cell capacitance compensation after the whole cell mode was achieved. No leak subtraction was made.
(§3) Cell was incubated with the test article for 5 minutes, or until the current reached a steady-state level. Multiple concentrations of test article were tested. The test articles were applied gradually from low to high concentration. The test and control solutions were flown into a recording chamber mounted on the stage of an inverted microscope via a gravity-fed solution delivery system. During the experiment, solutions were withdrawn from the recording chamber by vacuum aspiration. Each concentration was tested at multiple times. Each cell acted as its own control. All tests were performed at room temperature (23-25° C.).
Cav1.2 current was recorded under a holding potential at −80 mV and then depolarized to +10 mV for 0.3 seconds. This protocol was repeated at 20 s intervals to observe the effect of test articles on the peak of Cav1.2 current.

[2] = molecular target: T2, hERG (human ether-a-go-go related gene potassium channel, KCNH2) (Homo sapiens, UniProt Q12809); test: hERG channel whole-cell patch clamp (Ion Channel Activity Measurement); format: cell-based; details: human, room temperature; for inhibition at 1 μM: pH 7.4, 1 μM test article; for inhibition at 10 μM: pH 7.4, 10 μM test article
T2 construct: expressed in transfected cells; host or cells: HEK293
T2 sequence (Q12809 whole entry): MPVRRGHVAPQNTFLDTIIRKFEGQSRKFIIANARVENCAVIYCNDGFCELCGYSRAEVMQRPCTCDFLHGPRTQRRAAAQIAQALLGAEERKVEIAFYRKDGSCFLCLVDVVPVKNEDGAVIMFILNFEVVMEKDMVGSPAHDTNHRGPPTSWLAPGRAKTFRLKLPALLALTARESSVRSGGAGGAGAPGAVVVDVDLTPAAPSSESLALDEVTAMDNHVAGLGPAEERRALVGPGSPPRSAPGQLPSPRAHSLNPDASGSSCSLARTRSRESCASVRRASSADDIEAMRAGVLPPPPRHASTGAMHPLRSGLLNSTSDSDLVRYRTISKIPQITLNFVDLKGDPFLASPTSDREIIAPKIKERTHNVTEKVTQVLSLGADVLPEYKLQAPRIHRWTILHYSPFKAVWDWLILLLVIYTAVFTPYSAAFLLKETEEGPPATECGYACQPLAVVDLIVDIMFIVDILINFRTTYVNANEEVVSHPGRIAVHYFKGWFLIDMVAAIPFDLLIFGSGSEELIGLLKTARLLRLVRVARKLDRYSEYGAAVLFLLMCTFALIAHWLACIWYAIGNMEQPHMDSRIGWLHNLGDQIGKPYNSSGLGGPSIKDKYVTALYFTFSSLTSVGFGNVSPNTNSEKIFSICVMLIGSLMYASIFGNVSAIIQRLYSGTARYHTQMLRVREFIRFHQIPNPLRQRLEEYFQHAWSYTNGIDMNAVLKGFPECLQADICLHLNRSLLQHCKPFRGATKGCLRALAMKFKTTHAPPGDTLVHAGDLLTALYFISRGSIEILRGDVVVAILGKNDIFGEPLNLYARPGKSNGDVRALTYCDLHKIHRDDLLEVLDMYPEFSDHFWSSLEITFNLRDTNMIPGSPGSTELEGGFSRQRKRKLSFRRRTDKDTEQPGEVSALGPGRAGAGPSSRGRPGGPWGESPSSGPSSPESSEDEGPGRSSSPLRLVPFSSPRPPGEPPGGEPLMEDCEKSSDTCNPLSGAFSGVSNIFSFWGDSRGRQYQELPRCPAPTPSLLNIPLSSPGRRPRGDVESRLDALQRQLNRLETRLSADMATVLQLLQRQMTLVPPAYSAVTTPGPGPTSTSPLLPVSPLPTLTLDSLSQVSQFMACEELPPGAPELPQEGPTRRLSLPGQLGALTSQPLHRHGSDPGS
Experimental: HEK293 cell line expressing the human ERG (ether-a-go-go related gene) potassium channel (Potassium voltage-gated channel subfamily H member 2). cDNA strictly similar to GenBank accession number: NM_000238
as §1, §2, §3
hERG current was recorded under a holding potential at −80 mV and then depolarized to 30 mV for 2.5 seconds to activate the hERG channel. The peak tail currents were induced by a repolarizing pulse to −50 mV for 4 seconds. This voltage-clamp pulse protocol was performed continuously during the experiment. An interpulse interval of 10 seconds allowed recovery from inactivation. An interpulse of −50 mV test for 0.5 second before 30 mV depolarized step was included for leak current correction

[3] = HEK293 cells expressing the human ERG potassium channel

Compound	inhibition at 5 min, 1 μM [1] [%]	inhibition at 5 min, 10 μM [1] [%]	inhibition at 1 μM [2, 3] [%]	inhibition at 10 μM [2, 3] [%]	inhibition at 1 μM [2] [%]
Oc1c(Cl)cc2ccccc2c1Cc1c(O)c(Cl)cc2ccccc12 [Compound A046, 1,1′-methylenebis(3-chloronaphthalen-2-ol)]	< 25	< 25	< 25	< 25	–
Oc1cccc2c1C(c1c(O)ccc3ccccc13)CCC2 (stereo not drawn) [Compound A077, 1′,2′,3′,4′-tetrahydro-[1,1′-binaphthalene]-2,8′-diol]	< 25	< 25	< 25	50 to 75	–
O=C1Cc2ccccc2N1Cc1c(O)ccc2ccccc12 [Compound A057, 1-((2-hydroxynaphthalen-1-yl)methyl)indolin-2-one]	< 25	< 25	< 25	< 25	–
COc1ccc2ccccc2c1Cc1c(OCC2CCNCC2)ccc2ccccc12 [Compound A271, 4-(((1-((2-methoxynaphthalen-1-yl)methyl)naphthalen-2-yl)oxy)methyl)piperidine]	50 to 75	–	75 to 100	75 to 100	–
COc1ccc(COCc2ccc3ccccc3c2C(O)c2c(COCc3ccc(OC)cc3)ccc3ccccc23)cc1 [Compound A080, bis(2-(((4-methoxybenzyl)oxy)methyl)naphthalen-1-yl)methanol]	< 25	25 to 50	< 25	< 25	–
CN1CCC(COc2ccc3ccccc3c2Cc2c(O)ccc3ccccc23)C1 (stereo not drawn) [Compound A262, 1-((2-((1-methylpyrrolidin-3-yl)methoxy)naphthalen-1-yl)methyl)naphthalen-2-ol]	< 25	75 to 100	75 to 100	75 to 100	–
Oc1ccc2ccccc2c1Cc1c(OCCC2CCNCC2)ccc2ccccc12 [Compound A286, 1-((2-(2-(piperidin-4-yl)ethoxy)naphthalen-1-yl)methyl)naphthalen-2-ol]	< 25	75 to 100	75 to 100	–	–
CS(=O)(=O)Nc1ccc2ccccc2c1Cc1c(O)ccc2ccccc12 [Compound A025, N-(1-((2-hydroxynaphthalen-1-yl)methyl)naphthalen-2-yl)methanesulfonamide]	< 25	25 to 50	< 25	25 to 50	–
CCN(CC)CCOc1ccc2ccccc2c1N(C)c1c(OC)ccc2ccccc12 [Compound A111-I-2, 2-(2-(diethylamino)ethoxy)-N-(2-methoxynaphthalen-1-yl)-N-methylnaphthalen-1-amine 2,2,2-trifluoroacetate]	< 25	25 to 50	50 to 75	75 to 100	–
Oc1cccc2c1C(c1c(O)ccc3c1CCCC3)CCC2 (stereo not drawn) [Compound A077-2, 1′,2′,3′,4′,5,6,7,8-octahydro-[1,1′-binaphthalene]-2,8′-diol]	< 25	< 25	< 25	50 to 75	–
Oc1ccc2c(c1Cc1c(O)ccc3c1CNCC3)CCCC2 [Compound A141-I-1, 8-((2-hydroxy-5,6,7,8-tetrahydronaphthalen-1-yl)methyl)-1,2,3,4-tetrahydroisoquinolin-7-ol]	< 25	< 25	< 25	< 25	–
Nc1cc(Cc2c(N)ccc3ccccc23)c2ccccc2c1 [Compound A022-2, 4-((2-aminonaphthalen-1-yl)methyl)naphthalen-2-amine]	< 25	25 to 50	< 25	75 to 100	–
Cc1cc2ccccc2c(Cc2c(O)c(C)cc3ccccc23)c1O [Compound A032, 1,1′-methylenebis(3-methylnaphthalen-2-ol)]	< 25	< 25	< 25	< 25	–
Nc1ccc2ccccc2c1Cc1c(O)ccc2ccccc12 [Compound A021, 1-((2-aminonaphthalen-1-yl)methyl)naphthalen-2-ol]	< 25	< 25	< 25	< 25	–
Oc1cccc2c1C(c1c(O)ccc3ccccc13)=CC2 [Compound A078, 1-(4-hydroxy-1H-inden-3-yl)naphthalen-2-ol]	< 25	< 25	< 25	< 25	–
Oc1cccc(-c2cccnc2)c1Cc1c(O)cccc1-c1cccnc1 [Compound A117, 2,2′-methylenebis(3-(pyridin-3-yl)phenol)]	< 25	25 to 50	< 25	< 25	–
CCN(CC)CCOc1ccc2ccccc2c1Cc1c(OCCN(CC)CC)ccc2ccccc12 [Compound A103, 2,2′-((methylenebis(naphthalene-1,2-diyl))bis(oxy))bis(N,N-diethylethan-1-amine) formic acid]	< 25	< 25	–	–	–
COc1ccc2ccccc2c1Cc1c(COCCN2CCCC2)ccc2ccccc12 [Compound A296, 1-(2-((1-((2-methoxynaphthalen-1-yl)methyl)naphthalen-2-yl)methoxy)ethyl)pyrrolidine]	< 25	75 to 100	–	–	75 to 100
Oc1ccc2ccccc2c1Cc1c(O)ccc2ccncc12 [Compound A109, 8-((2-hydroxynaphthalen-1-yl)methyl)isoquinolin-7-ol]	25 to 50	50 to 75	< 25	75 to 100	–
CC(C)Oc1ccc2ccccc2c1Cc1c(OCCN2CCCC2)ccc2ccccc12 [Compound A256, 1-(2-((1-((2-isopropoxynaphthalen-1-yl)methyl)naphthalen-2-yl)oxy)ethyl)pyrrolidine]	< 25	75 to 100	50 to 75	75 to 100	–
COc1ccc2ccccc2c1Cc1c(OCCO)ccc2ccccc12 [Compound A139-2, 2-((1-((2-methoxynaphthalen-1-yl)methyl)naphthalen-2-yl)oxy)ethan-1-ol]	< 25	75 to 100	75 to 100	75 to 100	–
CS(=O)(=O)Nc1cc2ccccc2cc1Cc1c(NS(C)(=O)=O)ccc2ccccc12 [Compound A024-3, N-(3-((2-(methylsulfonamido)naphthalen-1-yl)methyl)naphthalen-2-yl)methanesulfonamide]	< 25	25 to 50	–	–	–
CS(=O)(=O)Nc1ccc2ccccc2c1Cc1c(NS(C)(=O)=O)ccc2ccccc12 [Compound A024, N,N′-(methylenebis(naphthalene-1,2-diyl))dimethanesulfonamide]	< 25	< 25	–	–	–
CC(C)Oc1ccc2ccccc2c1Cc1c(OCCN)ccc2ccccc12 [Compound A246, 2-((1-((2-isopropoxynaphthalen-1-yl)methyl)naphthalen-2-yl)oxy)ethan-1-amine]	–	–	25 to 50	–	–
